The structures appear in SMILES notation. Entries after “also recorded” stand apart in the source; their conditions may differ.

This is an account of results in publication PMC4368788, “Depsides: Lichen Metabolites Active against Hepatitis C Virus” (PLoS ONE, 2015).

Data set [1] in a line: Cell viability in the inoculation/replication (I, R, I/R) procedure. The settings on record: human; I, R, I/R incubation conditions. Type of data set: cell-based, human. On the procedure:
(§1) An experimental procedure was designed to determine the inhibitor class (entry or replication) to which compounds 1, 5 and 6 belonged. HCVcc were added to the cell culture during a limited time window (around 17 h). The cells were then washed to eliminate viruses from the inoculum and viral replication was allowed to take place for an additional 30 h. The selected compounds were present in the culture medium during inoculation (I), replication (R), or both these phases (inoculation and replication, I/R). […] In terms of antiviral activity, we expected to obtain two inhibition profiles for the luminescence signal, depending on the step of the viral lifecycle targeted by the drug (Fig. 4B). […] The inhibitory effect on the establishment of replication (R conditions) observed at high doses was probably due principally to the inhibition of new infection cycles initiated by virions produced by cells infected with the inoculum. A different profile was obtained for telaprevir. […] Its presence in the medium from inoculation onwards prevented the priming of the infection process at the viral polyprotein maturation step, which normally takes place after the translation of the HCV genome issued from the infecting virus. This maturation step is also repeated during the replication phase, for amplification of the viral genome and virion assembly. It is therefore not surprising that inhibition was strongest when telaprevir was present throughout the viral lifecycle (I/R), as there was probably an additive effect. […] The chemical group in this position seems to influence not only the potency of the molecule, but also its mechanism of action. Further studies are required to identify the processes involved because, for example, we cannot rule out a role in the inhibition of viral entry for compounds 5 and 6, even though they appeared to act as replication inhibitors in this experiment. It could be hypothesized that the replacement of a methyl or hydroxymethyl by an aldehyde group in position C-3 would lead to a loss of replication inhibition, but maintenance of the ability to inhibit viral entry.
Fig 4 Effects of compounds 1, 5 and 6 on cell viability and HCV propagation in vitro. One day after seeding at 50,000 cells/cm^2, Huh-7.5.1 cells were infected with HCVcc at a MOI ~ 0.03 for 17 h (inoculation phase: I). The inoculum was removed and cell cultures were washed before the addition of new medium and incubation for an additional 30 h (replication phase: R). […] (A) Cell viability and (B) viral replication were assessed at the end of the incubation period. Results are expressed as percentages (mean ± SEM; n = 3) of the mean values obtained for the respective control cultures, in which cells were incubated with vehicle (0.1% DMSO) alone.

In data set [2] the test system is HCVcc. The data set can be described thus: Targeted stage of HCV life cycle: compounds present during inoculation (I), replication (R) or both (I/R), luciferase readout. Type of data set: cell-based, hepatitis C virus. The settings on record: compounds present during I (17 h), R (30 h) or I/R. As for the experimental part:
as §1
Fig 4 Effects of compounds 1, 5 and 6 on cell viability and HCV propagation in vitro. One day after seeding at 50,000 cells/cm^2, Huh-7.5.1 cells were infected with HCVcc at a MOI ~ 0.03 for 17 h (inoculation phase: I). The inoculum was removed and cell cultures were washed before the addition of new medium and incubation for an additional 30 h (replication phase: R). Compounds were present at various concentrations either during both phases (I/R: black circles and solid lines) or during only one phase (I: black squares and dotted lines; R: black triangles and dashed lines). (A) Cell viability and (B) viral replication were assessed at the end of the incubation period. Results are expressed as percentages (mean ± SEM; n = 3) of the mean values obtained for the respective control cultures, in which cells were incubated with vehicle (0.1% DMSO) alone.

Data set [3] relates to HCVcc. In words: Anti-HCV activity: HCVcc expressing Renilla luciferase in Huh-7.5.1 cells, luciferase readout. Type of data set: cell-based, hepatitis C virus. On the procedure:
Huh-7.5.1 cells were maintained in Dulbecco's modified Eagle's medium (DMEM) containing 4.5 g/l D-glucose, 4 mM L-glutamine (Life Technologies), supplemented with 100 units/mL penicillin (Life Technologies), 100 μg/mL streptomycin (Life Technologies), non-essential amino acids (Sigma-Aldrich), 1 mM Hepes (Life Technologies) and 10% heat-inactivated fetal calf serum (FCS, Hyclone). […] In cell viability and HCV in vitro propagation experiments, the final concentration of DMSO was systematically adjusted to 0.1%. We checked that this amount of DMSO had no effect on the biological cycle of HCVcc in vitro (data not shown).
(§2) HCVcc was generated from the FL-J6/JFH-5’C19Rluc2AUbi construct, a monocistronic, full-length HCV genome that expresses Renilla luciferase. It was produced and titrated as described elsewhere, except for the readout for luciferase activity measurement. Cell viability was evaluated with the Cell Proliferation Reagent WST-1 (Roche), according to the manufacturer’s instructions. Luciferase assays were performed according to the manufacturer’s instructions (Promega) and measurements were performed on a Centro XS3 LB960 luminometer (Berthold Technologies).
(§3) Cell viability and viral replication data from at least three independent experiments were analyzed. The IC50 values of the compounds were determined from dose-response curves generated with seven to 12 concentrations of each compound. Curves were fitted to the data points by nonlinear regression analysis and IC50 values were interpolated from the resulting curves with GraphPad Prism 5.00 software.
We evaluated the anti-HCV activity of the 10 atranorin-related compounds, using a virus grown in cell culture (HCVcc) with a modification of its genome resulting in expression of the Renilla luciferase reporter gene. […] These two compounds are known to interfere with the entry and replication steps of viral cycle, respectively. The maximum dose of each tested compound was 100 μM, because most of these molecules became insoluble in aqueous solution at higher concentrations. The first experimental procedure used involved the preincubation of human hepatic Huh-7.5.1 cells for 1 h with various doses of the molecules. The cells were then cultured in the presence of both the molecules tested and the virus, for an additional 48 h. At the end of the incubation period, we assessed cell viability and viral replication. This protocol made it possible to test the effects of molecules on both virus entry and replication. […] Remarkably, compound 6 tended to give a slightly, but reproducibly higher viability signal when used at high doses, with a peak at about 50 μM. […] At concentrations greater than 50 μM, cytotoxic effects emerged, as shown by the decrease of the viability signal.

The next data set is described as follows: in vitro. Type of data set: cell-based, human. The settings on record: human, mean ± SEM. On the procedure: (§4) Huh-7.5.1 cells were maintained in Dulbecco's modified Eagle's medium (DMEM) containing 4.5 g/l D-glucose, 4 mM L-glutamine (Life Technologies), supplemented with 100 units/mL penicillin (Life Technologies), 100 μg/mL streptomycin (Life Technologies), non-essential amino acids (Sigma-Aldrich), 1 mM Hepes (Life Technologies) and 10% heat-inactivated fetal calf serum (FCS, Hyclone). […] In cell viability and HCV in vitro propagation experiments, the final concentration of DMSO was systematically adjusted to 0.1%.
as §2, §3
(§5) We evaluated the anti-HCV activity of the 10 atranorin-related compounds, using a virus grown in cell culture (HCVcc) with a modification of its genome resulting in expression of the Renilla luciferase reporter gene. […] These two compounds are known to interfere with the entry and replication steps of viral cycle, respectively. […] The first experimental procedure used involved the preincubation of human hepatic Huh-7.5.1 cells for 1 h with various doses of the molecules. The cells were then cultured in the presence of both the molecules tested and the virus, for an additional 48 h. At the end of the incubation period, we assessed cell viability and viral replication. This protocol made it possible to test the effects of molecules on both virus entry and replication.

The next data set deals with Huh-7.5.1 cells. The data set can be described thus: in vitro. Type of data set: cell-based, human. Particulars: half-maximal cytotoxicity concentration, Huh-7.5.1 cells, 48 h; mean ± SEM; maximum dose tested 100 μM. As for the experimental part: as §4, §2, §3, §5

Turning to `COC(=O)c1c(C)cc(OC(=O)c2c(C)cc(O)c(CO)c2O)c(C)c1O` [Compound 5, Methyl-8-hydroxy-4-O-demethylbarbatate], the values for the CC50 (in data set [1]; in the data set on Huh-7.5.1 cells) were about 100 µM and 106 ± 7.3 µM, respectively. Besides, the “Inhibition profile / step of HCV lifecycle targeted” value with HCVcc [2] is “interfered with viral replication; also recorded: profiles typical of replication inhibitors”. The compound also returned an IC50 in the data set on HCVcc [3] (Hepatitis C virus, Huh-7.5.1 cells infected with HCVcc, 1 h preincubation then 48 h with virus, mean ± SEM, three experiments) of 11.8 ± 1.1 µM. Further, in the data set on HCVcc [3] (ratio of CC50 to IC50), the “SI (selectivity index)” value is 8.9. Moreover, the CC50 at 48 h in the data set “in vitro” (half-maximal cytotoxicity concentration, Huh-7.5.1 cells, 48 h, maximum dose tested 100 μM) amounted to 106 µM. In “in vitro” (50 μM, percentage of vehicle (0.1% DMSO) control, n = 3), this compound returned a viability at 48 h, 50 µM of 88.4 ± 7.3%. The compound also yielded a viability at 48 h, 100 µM in the data set “in vitro” (100 μM, percentage of vehicle (0.1% DMSO) control, n = 3) of 55.8 ± 5.9%.

The term CC50 denotes the concentration that lowers cell viability or growth by half. A low value points to greater toxicity to the cells. For orientation: IC50 means the concentration that gives 50% inhibition. A lower IC50 goes with greater potency in that assay. One may read the viability as a read-out of living cells in per cent, often relative to untreated cells. Low readings indicate a greater loss of cells, high ones better survival.
